We go through three molecules from patent publication EP0186440A2, “Method for producing benzoic acid derivatives” (Takeda Chemical Industries, Ltd., priority 1984, dated 1986).

Like-named read-outs stand apart in the source and are kept apart here.

In data set [1] the test system is synthetic leukotriene D4 (LTD4). The data set is described as follows: Bronchoconstriction in guinea pigs due to intravenous LTD4 (Konzett-Rössler method), compound given orally one hour before. Format: in vivo, Guinea pigs of the Hartley strain. The settings on record: Cavia porcellus, 1 h; 50% inhibitory dose; oral, one hour before LTD4 (10 µg/kg i.v.); inhibition of overflowing volume at maximal response, 30 seconds after LTD4; read-out: ID50(p.o.). As to the method:
Guinea pigs of the Hartley strain, both male and female, with body weights of about 400 g were assigned to groups of 6-10 individuals, and the bronchoconstriction due to LTD4 was measured according to the method of Konzett-Rossler, [Konzett, H. and Rössler, R.: Naunyn-Schmidebergs Archiv für Experimentelle Pathologie und Pharmakologie, 195, 71-74 (1940).] Each guinea pig was fixed in a supine position under urethane anesthesis (1.5 g/kg, intraperitoneal) and the trachea was incised and connected to an artificial respiration apparatus, Rodent Respirator Model 680 [Harvard Apparatus Company, U.S.A.] via a cannula. The branch tube of this tracheal cannula was connected to a Bronchospasm Transducer Model 7020 [Ugobasil Biological Research Apparatus, Italy]. Under the conditions of 4 to 7 ml of air per stroke, 70 strokes per minute and a lung loading pressure of 10 cmH20, the volume of overflowing air was recorded on Rectigraph-8S (San-eiSokki Ltd., Japan) via a transducer. After administration of gallamine triethiodide (1'mg/kg, i.v.), a solution of LTD4 in physiological saline (10 µg/kg) was intravenously administered and the bronchoconstriction elicited thereby was recorded for 15 minutes. The compound was used as suspended in a 5% solution of gum arabic or dissolved in water, and administered orally in a volume of 0.2 ml per 100 c body weight one hour before LTD4 loading. […]

Details of data set [2]: species or system male mice of Jcl:ICR strain. The settings on record: mouse, in vivo, po. As for the experimental part: Five 5-week-old male mice of Jcl:ICR strain, weighing about 30 g each, were used. Compound A, C or E was suspended in a 5% solution of gum arabic and administered orally at the level of 0.2 ml per 10 grams body weight.

As for `CCCc1c(OCCCOc2ccc(C(=O)O)cc2Br)ccc(C(C)=O)c1OC(C)=O` [Compound A, 4-[3-(3-acetoxy-4-acetyl-2-propylphenoxy)propoxy]-3-bromobenzoic acid], in data set [1], the ED50 amounted to 47 µmol/kg. Further, in data set [2] (500 mg/kg), the “Autopsy after 7 days” value was “did not reveal any abnormalities” and the “symptoms attributable to the compound (acute toxicity)” value (“symptoms attributable to the compound” below) is listed as “no symptoms”.
As for `CCCc1c(OCCCOc2ccc(C(=O)OCCN3CCOCC3)cc2Br)ccc(C(C)=O)c1O` [C, 2-morpholinoethyl 4-[3-(4-acetyl-3-hydroxy-2-propylphenoxy)propoxy]-3-bromobenzoate], in data set [2] (2000 mg/kg), the “Autopsy after 7 days” value is “did not reveal any abnormalities” and the “symptoms attributable to the compound” value is “no symptoms”.
As to `CCCc1c(OCCCOc2ccc(C(=O)OCCCN(C)C)cc2Br)ccc(C(C)=O)c1O` [E, 3-dimethylaminopropyl 4-[3-(4-acetyl-3-hydroxy-2-propylphenoxy)propoxy]-3-bromobenzoate], in data set [2] (2000 mg/kg), the “Autopsy after 7 days” value was “did not reveal any abnormalities” and the “symptoms attributable to the compound” value was “no symptoms”.
